What was measured:
[1] = system: LITAF; assay: Western blot of LITAF in oral keratinocytes; format: cell-based, human
Description: Cell Culture. Normal human oral keratinocytes (NOKSI) and fibroblast (HOF) cells were maintained in Dulbecco […] Eagle's medium (Sigma-Aldrich, St. Louis, MO, USA) supplemented with 10% fetal bovine serum (Atlas Bio-logicals, Fort Collins, CO, USA) and 100 units/mL penicillin and 100 μg/mL streptomycin (LifeTechnologies, Carlsbad, CA, USA). Cells were grown in incubator at 37° C. in a humidified chamber with 5% CO2.
Drugs treatment in cell culture. The cells were treated alone or with different combination of lipopolysaccharide, cyclosporine, phenytoin, and folic acid. All of them were purchased from Sigma-Aldrich (St. Louis, MO, USA). Each of them were used from 0 μg/ml to 40 μg/ml and the optimum concentration were found 10 μg/ml.
Western blot analysis. Cells were seeded in 60 mm plates with a density of 5×10^5 cells per plate and washed briefly with Dulbecco's phosphate-buffered saline (Gibco, Waltham, MA, USA). Whole cell lysates were prepared using RIPA lysis buffer containing protease inhibitor cocktail (Sigma-Aldrich). Total protein concentration was determined using the BCA reagent (Pierce, Waltham, MA, USA). 20 μg of total protein were resolved on sodium dodecyl sulfate-polyacrylamide gel electrophoresis and transferred to polyvinylidenedifluoride membrane and immunoblotted. The blots were incubated for 1 h in 1% bovine serum albumin (BSA) (Sigma-Aldrich) to block the non-specific bindings followed by over-night incubation in primary antibodies (MyD88 and pP65 from Cell Signaling Technology, and human LITAF ThermoFisher Sigma) at 4° C. on shaker. Next day, blots were washed for three times (10 min each) in Tris-buffered saline containing 1% Tween20 (TBST) followed by incubation with secondary antibody (Goat anti-rabbit IgG HRP) with 1:10,000 dilution for 1 h. Following washes, bands were visualized using gel documentation Imaging Systems (BioRad). The band intensities were quantified using software ImageJ (NIH, USA) and relative protein levels were normalized by β-actin (Cell Signaling). To perform the western blot of animal tissue samples, the gingival tissues were collected from both BABLB/c and C57BL/6 mice studies. The soft tissues were separated from the mandibular bone and then crunched. The Bradford assay was performed to measure the protein concentration of each sample. After normalization, 20 μg of whole tissue protein lysate were proceeded for western blot analysis.

[2] = system: TNF-α; assay: TNF-α ELISA of mice gingival tissue lysates; format: in vivo; details: n=5, p<0.05
Description: Enzyme linked immunosorbent assay (ELISA). ELISA was conducted with a mouse TNF-α ELISA Kit (PeproTech, USA) and TGF-β Emax ImmunoAssay System (Promega USA) to detect the TNF-α and TGF-β respectively. After normalization of the total cells or tissue protein lysates, 20 μg protein of each sample was used for the detection of TNF-α or TGF-β. ELISA was performed according to the manufacturers' instructions. For TNF-α, 100 ng/100 μl of capture antibody was added to each well of 96 well assay plate and incubated for overnight at room temperature. Blocking buffer of 200 μl per well were added to each well and incubated for 1 hour at room temperature. 20 μg of each protein sample as well as TNF-α standard (from 2 ng/ml to 0 ng/ml) were added and incubated the plates for 2 hours. 50 ng/100 μl of detection antibody was added in each well and incubated for 2 hours. Avidin-HRP conjugated antibody with a dilution of 1:2000 was added for 30 minutes. 100 μl per well of ABTS solution was added to each well and incubated until color change. Optical absorbing values were read at 405 and 450 nm and corrected by 650 nm. […] TMB One Solution was added for 15 minutes and the reaction were stopped using 100 μl of 1N hydrochloric acid and the absorbance at 450 nm were recorded on a plate reader. Data were analyzed using excel software. […]
Mice gingival tissue lysates were assessed for TNF-α levels using an ELISA (n=5).

[3] = system: p-P65; assay: Immunofluorescence of p-P65 nuclear translocation in oral keratinocytes; format: cell-based, human; details: 24 hours
Description: Immunostaining and fluorescence microscopy. The cultured cells were fixed with 4% paraformaldehyde followed by permeabilization with phosphate buffered saline (PBS) containing 0.1% Triton X-100 (PBS-T), and blocking with PBS-T containing 5% bovine serum albumin (BSA). Then, the cells were incubated with anti-pP65 antibody (Cell Signaling, USA) followed by Alexa Fluor 488 conjugated-goat anti-rabbit secondary antibody (Invitrogen, Grand Island). Rhodamine phalloidin (Invitrogen) and 4′,6-diamidino-2-phenylindole (Vector labs, Burlingame) were added to visualize the actin and nucleus respectively. The samples were mounted and examined using a Zoe microscope (BioRad, USA). The image analyses were performed using the ImageJ (NIH) software.
Oral Keratinocytes cells were cultured, and treated with CSA, LPS or FA alone or with combinations and incubated for 24 hours. The immunofluorescent images were taken to determine the translocation of p-P65 (green) to the nucleus (blue). Cells were counterstained with Phalloidin (cytoskeleton, red) and DAPI (nucleus).
Oral Keratinocytes cells were seeded in 24 well plates. […] Translocation of phospho-p65 (p-P65) protein to the nucleus was determined by fluorescence microscopy as shown in the green color. The morphology of cells and nucleus position were determined by palloidin and DAPI staining shown by red and blue colors respectively.

Nc1nc2ncc(CNc3ccc(C(=O)N[C@@H](CCC(=O)O)C(=O)O)cc3)nc2c(=O)[nH]1 [folic acid]
LITAF protein level ([1]; LPS, CSA, FA each 10 μg/ml, 24 hours): inhibits CSA-induced expression
amount of LITAF protein ([1]; LPS, Phe, FA each 10 μg/ml, 24 hours): LITAF expression is reduced
amount of LITAF protein ([1]; different concentrations of folic acid (2.5-40 μg/ml), 24 hours): dose dependent effect
LITAF by western blot ([1]; normal oral keratinocyte cells, FIG. 35): downregulation
TNF-α levels in mice gingival tissue lysates [2]: reduced the expression of TNF-α
translocation of p-P65 to the nucleus ([3]; CSA, LPS or FA alone or in combinations): inhibits CSA-induced activation of phospho-P65
translocation of phospho-p65 (p-P65) protein to the nucleus ([3]; LPS, Phe, FA each 10 μg/ml): reduced nuclear translocation of p-P65

From US20260000496A1, “MATERIALS AND METHODS FOR DRUG-INDUCED GINGIVAL OVERGROWTH” (Optimed Technology, Inc., priority 2019, published 2026)
